Experiments:
Details in all cases: 72 h
Calu-3 [1] = test: drug sensitivity score (DSS) for viability; higher = more toxic; extreme values may be limits of the assay
Caco-2 [2] = test: as above
HepG2 [3] = test: as above
Vero E6 [4] = test: as above
U2OS [5] = test: as above
Calu-3 [6] = test: relative viability EC50 (midpoint between 100% and the lowest measured viability); higher = less toxic
Caco-2 [7] = test: as above
HepG2 [8] = test: as above
Vero E6 [9] = test: as above
U2OS [10] = test: as above
Calu-3 [11] = test: cell viability relative to DMSO; higher = less toxic
Caco-2 [12] = test: as above
HepG2 [13] = test: as above
Vero E6 [14] = test: as above
U2OS [15] = test: as above

Structure (SMILES)	drug sensitivity score (Calu-3 [1])	drug sensitivity score (Caco-2 [2])	drug sensitivity score (HepG2 [3])	drug sensitivity score (Vero E6 [4])	drug sensitivity score (U2OS [5])	relative viability EC50 (Calu-3 [6]) [µM]	relative viability EC50 (Caco-2 [7]) [µM]	relative viability EC50 (HepG2 [8]) [µM]	relative viability EC50 (Vero E6 [9]) [µM]	relative viability EC50 (U2OS [10]) [µM]	cell viability (Calu-3 [11]; 1 nM) [%]	cell viability (Calu-3 [11]; 10 nM) [%]	cell viability (Calu-3 [11]; 100 nM) [%]	cell viability (Calu-3 [11]; 1000 nM) [%]	cell viability (Calu-3 [11]; 10000 nM) [%]	cell viability (Caco-2 [12]; 1 nM) [%]	cell viability (Caco-2 [12]; 10 nM) [%]	cell viability (Caco-2 [12]; 100 nM) [%]	cell viability (Caco-2 [12]; 1000 nM) [%]	cell viability (Caco-2 [12]; 10000 nM) [%]	cell viability (HepG2 [13]; 1 nM) [%]	cell viability (HepG2 [13]; 10 nM) [%]	cell viability (HepG2 [13]; 100 nM) [%]	cell viability (HepG2 [13]; 1000 nM) [%]	cell viability (HepG2 [13]; 10000 nM) [%]	cell viability (Vero E6 [14]; 1 nM) [%]	cell viability (Vero E6 [14]; 10 nM) [%]	cell viability (Vero E6 [14]; 100 nM) [%]	cell viability (Vero E6 [14]; 1000 nM) [%]	cell viability (Vero E6 [14]; 10000 nM) [%]	cell viability (U2OS [15]; 1 nM) [%]	cell viability (U2OS [15]; 10 nM) [%]	cell viability (U2OS [15]; 100 nM) [%]	cell viability (U2OS [15]; 1000 nM) [%]	cell viability (U2OS [15]; 10000 nM) [%]
CC(O)(C(=O)Nc1ccc(S(=O)(=O)c2ccccc2)cc1)C(F)(F)F (stereo not given)	2.1	0	0	0	0	> 10	> 10	> 10	> 10	> 10	101	98.1	99.8	82.2	89.1	94.9	90.6	97	107	95.9	100	90.8	96.4	102	109	98.4	93.1	97.9	89.6	95.3	99.2	100	97.4	104	102
NCCc1cc[nH]n1 [betazole]	0	0	0	0	0	> 10	> 10	> 10	> 10	> 10	97.2	102	97.2	101	109	89	91.4	84.3	92.6	107	100	106	92.9	98	125	94.4	104	92.8	106	106	102	99.5	105	102	108
FC(F)(F)c1cccc(-c2noc(-c3cc(-c4ccccc4)c(C(F)(F)F)s3)n2)c1 [SEW-2871]	0	0	0	0	0	> 10	> 10	> 10	> 10	> 10	93.2	91.1	99.9	93.3	98.5	103	104	102	99.8	108	102	103	93.9	100	99	101	98	97.4	90.7	110	93.7	99.1	96	102	102
CCCNC(=O)N1N=C(c2ccc(N)cc2)c2cc3c(cc2C1C)OCO3 (stereo not given) [SYM-2206]	0	0	0	0	0	> 10	> 10	> 10	> 10	> 10	86.9	101	109	111	119	96.6	102	95.5	94.2	100	91.9	94.8	95.2	93	93.5	98.5	92.5	97.9	88.9	98.6	95.1	101	97.4	103	101
CNC[C@H](O)c1cccc(O)c1 [phenylephrine]	0	0	0	0	0	> 10	> 10	> 10	> 10	> 10	103	92.5	95.7	98.9	97.5	99.2	91	96.4	92.4	99.7	98.7	101	99.1	93.5	111	96.6	99.7	95.6	93.5	102	98.9	96.1	98.9	102	101
C=CCN1CC[C@]2(C)c3cc(O)ccc3C[C@H]1[C@H]2C	0	0	0	0	0	> 10	> 10	> 10	> 10	> 10	102	90.2	94.7	90.3	93.8	97.3	99	102	103	96.3	98	95.4	108	104	117	96.9	102	93.4	100	107	98.6	98.2	103	99.2	101
CC[C@H](CO)Nc1nc(NCc2ccc(-c3ccccn3)cc2)c2ncn(C(C)C)c2n1 [CR8-(R)]	14.6	14.3	27.5	19.9	17.9	0.184	0.172	0.0531	0.201	0.315	104	80	87	31.3	39.9	101	97.1	86.5	34.5	34.1	88.7	102	17.2	0.7	8.8	90.2	99.3	85.8	2.9	9.3	100	93.3	99.8	0.2	4.8
CCCN(CCC)CCc1ccc(OC)c(OCCc2ccccc2)c1 [NE-100]	0	0.1	0	0	0	> 10	> 10	> 10	> 10	> 10	95.1	93.5	85.9	107	105	105	102	89.8	92.9	91.3	101	98.5	98.6	99.3	93	107	106	99.3	103	94.8	105	100	104	101	97.9
O=P(O)(O)C(O)(Cc1cnc2ccccn12)P(=O)(O)O [minodronic-acid]	0	0	0	0	0	> 10	> 10	> 10	> 10	> 10	98.1	95.1	104	96.5	106	98.1	103	96.4	103	98.6	99.2	102	106	85.5	101	106	102	98.6	100	98.1	100	97.6	95.9	102	102
N#CCC(=O)NN [cyacetacide]	0	0	0	0	0	> 10	> 10	> 10	> 10	> 10	84	103	96.3	95.7	108	98.2	102	100	95.6	97.8	95.7	91.9	97	97.4	93.4	106	98.6	102	108	102	95.5	103	96	94	102
NC(=O)c1ncn([C@@H]2O[C@H](CO)[C@@H](O)[C@H]2O)c1N [acadesine]	0	0	0	0	0	> 10	> 10	> 10	> 10	> 10	96.6	94.9	84.2	97.8	90.8	96.7	98.1	86.4	92.7	95.7	98.1	96.1	105	97.9	102	101	98	100	94.4	97.2	100	91.8	96.5	97.9	102
